The values below come from patent US20150148415A1, “DERIVATIZED DENDRIMER WITH LOW CITOTOXICITY FOR IN VIVO, EX VIVO, IN VITRO OR IN SITU CHELATION OF HEAVY METALS OR ACTINIDES” (priority 2013, published 2015).

This data set relates to C57BL/6 mice. As to the kind of experiment: In vivo acute toxicity assay, substance given alone (serum biochemistry, kidney histology). As for the experimental part: Animals. A total of 48 male C57BL/6 mice weighing 25-30 g purchased from the Instituto de Salud Pública (ISP), were used. Animal housing and experiment protocols were approved by the University of Talca in adherence to Conicyt experimental animal administrative regulations. All groups were maintained at a constant temperature (22±1° C.) on a 12-h light/12-h dark cycle (lights-on at 08:00 a.m.) and had free access to food and water.
Animal experimental design. […] Animals were euthanized 48 h later and blood samples were collected from the heart for the assessment of serum urea, creatinine, Lactate Deshidrogenase (LDH), Uric Acid and Calcium
Examination of nephrotoxicity. Mice were anaesthetized with sodium pentobarbitone and blood samples were collected from the heart and the kidneys were removed. Serum levels of urea, creatinine, LDH, Uric Acid and Calcium were determined using commercially available kits according to the protocols provided by Valtek (Valtek Diagnostic, Nuñoa, Chile). Left kidneys were fixed in 10% neutral buffered formaldehyde, embedded in paraffin wax and automatically processed. Sections (3 μm in thickness) of the embedded tissue were stained with hematoxylin-eosin for observation under light microscope.
Statistical analysis. The in vitro data were obtained from at least three independent experiments with three replicates, and all data are expressed as mean±SD. Experimental groups were compared using a one-way analysis of variance (ANOVA) followed by Scheffé's test when the data were normally distributed and by the Kruskal-Wallis test when they were not normally distributed. p-Values <0.05 were considered significant. Statistical tests were performed using GraphPad Prism 5 software, version 5.0 for Mac OS X.

Where [1] appears, read: substance alone ip (UO2 5 mg/kg of uranium; G4-Lys-Fmoc-Cbz 16 mg/kg; G5-Cou 40 mg/kg; EDTA 75 mg/kg), serum 48 h.

`CC(=O)O.CC(=O)O.O.O.[O]=[U]=[O]` [UO2^−, UO2(CH3COO)2.2H2O] showed a concentration of creatinine (UO2 alone, 5 mg/kg of uranium ip, serum 48 h) of 1.7±0.5. For the same compound, under setting [1], the Calcium is recorded as 8.8 ± 0.57 mg/dL, the Urea is 226.3 ± 39.4 mg/dL and the “Uric Acid” value amounted to 2.5 ± 0.39 mg/dL. In addition, where the note is “substance alone ip, 48 h”, the “kidney histology (hematoxylin-eosin)” value is “irreversible damage with necrosis”. Also, the “LDH (wide spectre toxicity indicator)” value (substance alone ip, serum 48 h) is on record as “induced a significant increase of the enzyme”.
